From US20100324124A1, “Compositions and methods relating to DNA-based particles” (Massachusetts Institute of Technology, priority 2009, published 2010)

System: B16F10 melanoma tumors
Assay: In vivo treatment of established B16F10 melanoma tumors, single intratumoral injection
Conditions: 100 μg DOX, C57B1/6 mice
Procedure: FIG. 7 illustrates in vivo tumor regression mediated by doxobucin-loaded nanoparticles. 5×10^6 Gaussia-luciferase-expressing B16F10 melanoma cells were subcutaneously injected into left flank of C57B1/6 mice. Tumors were allowed to establish and grow to ˜0.5 cm in diameter, and mice were divided randomly into groups of 8 per condition: group 1, no treatment (PBS); group 2, treated with free doxorubicin (100 μg DOX); group 3, treated with doxorubicin-imbedded liposome (100 μg DOX); and group 4, treated with doxorubicin-imbedded nucleic acid nanoparticle (100 μg DOX). Treatments were administered by intratumoral injection in 250 μl volumes. Tumors were measured every day with calipers in two dimensions. Tumor growth curves are plotted as the mean tumor area±standard deviation. Shown at bottom left is bioluminescence imaging of a mouse with an untreated tumor (left) and a mouse that received an injection of doxorubicin-imbedded nucleic acid nanoparticles (right). Animals were sacrificed after the last measurement and the tumors were excised and fixed for histology section. […]

COc1cccc2c1C(=O)c1c(O)c3c(c(O)c1C2=O)C[C@@](O)(C(=O)CO)C[C@@H]3O[C@H]1C[C@H](N)[C@H](O)[C@H](C)O1 [free doxorubicin, Doxorubicin]
effect on tumor growth relative to saline-injected control animals: no effect on tumor growth
